In PubChem BioAssay AID248 (DTP/NCI, 2004):
Several values for one entry are separate records, joined by “and”; a condition that tells them apart may be missing. Identical values can stand only once. Inconclusive results and toxic doses are left out.

Tested on: L1210 leukemia ip in BDF1 mice, survival T/C
Assay: NCI In Vivo Anticancer Drug Screen. Data for tumor model L1210 Leukemia (intraperitoneal) in B6D2F1 (BDF1) mice
Conditions: endpoint: mean survival time, higher = longer survival
Outline: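 Each compound was tested against a transplantable tumor grown in mice. The endpoint was survival, with treated animals benchmarked against vehicle controls as a simple ratio.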

[1] = dose: 100.0 mg/kg/injection, schedule: Q04DX002 (ip), vehicle: Klucel (hydroxypropylcellulose) (HPC)
[2] = dose: 200.0 mg/kg/injection, schedule: Q04DX002 (ip), vehicle: Klucel (hydroxypropylcellulose) (HPC)
[3] = dose: 400.0 mg/kg/injection, schedule: Q04DX002 (ip), vehicle: Klucel (hydroxypropylcellulose) (HPC)
[4] = dose: 100.0 mg/kg/injection, schedule: Q01DX009 (ip), vehicle: saline
[5] = dose: 100.0 mg/kg/injection, schedule: Q01DX001 (ip), vehicle: saline
[6] = dose: 200.0 mg/kg/injection, schedule: Q01DX001 (ip), vehicle: saline
[7] = dose: 200.0 mg/kg/injection, schedule: Q01DX009 (ip), vehicle: saline
[8] = dose: 400.0 mg/kg/injection, schedule: Q01DX001 (ip), vehicle: carboxymethylcellulose (CMC)
[9] = dose: 400.0 mg/kg/injection, schedule: Q01DX001 (ip), vehicle: saline
[10] = dose: 400.0 mg/kg/injection, schedule: Q01DX009 (ip), vehicle: saline
[11] = dose: 100.0 mg/kg/injection, schedule: Q01DX009 (ip), vehicle: Klucel (hydroxypropylcellulose) (HPC)
[12] = dose: 200.0 mg/kg/injection, schedule: Q01DX009 (ip), vehicle: Klucel (hydroxypropylcellulose) (HPC)
[13] = dose: 400.0 mg/kg/injection, schedule: Q01DX009 (ip), vehicle: Klucel (hydroxypropylcellulose) (HPC)
[14] = dose: 100.0 mg/kg/injection, schedule: Q01DX001 (ip), vehicle: saline with Tween-80
[15] = dose: 200.0 mg/kg/injection, schedule: Q01DX001 (ip), vehicle: saline with Tween-80
[16] = dose: 400.0 mg/kg/injection, schedule: Q01DX001 (ip), vehicle: saline with Tween-80

## CC(=O)Nc1ccc(F)c(F)c1
[1]
  T/C: 98 % of control
[2]
  T/C: 113 % of control
[3]
  T/C: 121 % of control

## COc1ncnc2c1ncn2C1CC(CO)C(O)C1O (stereo not drawn)
dose: 25.0 mg/kg/injection, schedule: Q01DX009 (ip), vehicle: saline
  T/C: 102 % of control
dose: 50.0 mg/kg/injection, schedule: Q01DX009 (ip), vehicle: saline
  T/C: 95 % of control
[4]
  T/C: 91 % of control

## S=C(Nc1ccc(Cl)cc1)Nc1ccc(-c2ccc(NC(=S)Nc3ccc(Cl)cc3)cc2)cc1
[1]
  T/C: 107 % of control
[2]
  T/C: 100 % of control
[3]
  T/C: 89 % of control

## NC(CC(=O)O)C(=O)O (stereo not drawn)
dose: 100.0 mg/kg/injection, schedule: Q01DX001 (ip), vehicle: carboxymethylcellulose (CMC)
  T/C: 94 % of control
[5]
  T/C: 102 % of control and 95 % of control
[4]
  T/C: 97 % of control
[1]
  T/C: 98 % of control
dose: 200.0 mg/kg/injection, schedule: Q01DX001 (ip), vehicle: carboxymethylcellulose (CMC)
  T/C: 89 % of control
[6]
  T/C: 96 % of control and 93 % of control
[7]
  T/C: 100 % of control
[2]
  T/C: 98 % of control
[8]
  T/C: 92 % of control
[9]
  T/C: 102 % of control and 90 % of control
[10]
  T/C: 97 % of control
dose: 400.0 mg/kg/injection, schedule: Q01DX030 (sc), vehicle: other
  T/C: 97 % of control
[3]
  T/C: 95 % of control
dose: 800.0 mg/kg/injection, schedule: Q01DX030 (sc), vehicle: other
  T/C: 96 % of control

## Cc1cc(=O)[nH]c(N/N=C/c2c(O)ccc3ccccc23)n1
[5]
  T/C: 96 % of control
[6]
  T/C: 94 % of control
[9]
  T/C: 89 % of control

## CC(=O)Oc1ccc(N(CCO)CCO)cc1OC(C)=O
dose: 1.17 mg/kg/injection, schedule: Q01DX001 (ip), vehicle: water
  T/C: 103 % of control
dose: 2.34 mg/kg/injection, schedule: Q01DX001 (ip), vehicle: water
  T/C: 97 % of control
dose: 4.68 mg/kg/injection, schedule: Q01DX001 (ip), vehicle: water
  T/C: 100 % of control

## CCCOC(C[N+](=O)[O-])C(Cl)(Cl)Cl (stereo not drawn)
dose: 6.25 mg/kg/injection, schedule: Q01DX009 (ip), vehicle: saline with Tween-80
  T/C: 91 % of control
dose: 12.5 mg/kg/injection, schedule: Q01DX009 (ip), vehicle: saline with Tween-80
  T/C: 96 % of control
dose: 25.0 mg/kg/injection, schedule: Q01DX009 (ip), vehicle: saline with Tween-80
  T/C: 101 % of control
dose: 25.0 mg/kg/injection, schedule: Q04DX003 (ip), vehicle: saline with Tween-80
  T/C: 104 % of control

## O=[N+]([O-])c1cccc2c(Br)cccc12
[4]
  T/C: 106 % of control
dose: 100.0 mg/kg/injection, schedule: Q04DX003 (ip), vehicle: saline
  T/C: 103 % of control
[7]
  T/C: 95 % of control
dose: 200.0 mg/kg/injection, schedule: Q04DX003 (ip), vehicle: saline
  T/C: 100 % of control
[10]
  T/C: 95 % of control
dose: 400.0 mg/kg/injection, schedule: Q04DX003 (ip), vehicle: saline
  T/C: 106 % of control

## c1ccc(-c2nc[nH]c2-c2ccccc2)cc1
[11]
  T/C: 96 % of control
dose: 100.0 mg/kg/injection, schedule: Q04DX003 (ip), vehicle: Klucel (hydroxypropylcellulose) (HPC)
  T/C: 105 % of control
[12]
  T/C: 91 % of control
dose: 200.0 mg/kg/injection, schedule: Q04DX003 (ip), vehicle: Klucel (hydroxypropylcellulose) (HPC)
  T/C: 100 % of control
[13]
  T/C: 96 % of control
dose: 400.0 mg/kg/injection, schedule: Q04DX003 (ip), vehicle: Klucel (hydroxypropylcellulose) (HPC)
  T/C: 100 % of control

## N#Cc1cccc(OCCOc2cccc3ccccc23)c1
[14]
  T/C: 96 % of control
[15]
  T/C: 94 % of control
[16]
  T/C: 87 % of control

## OC1(c2ccccc2)C2=CC(c3ccccc3)=C(c3ccccc3)CC2C(c2ccccc2)C1c1ccccc1 (stereo not drawn)
[14]
  T/C: 100 % of control
[15]
  T/C: 91 % of control
[16]
  T/C: 96 % of control

## O=C(Nc1ccccc1)OCCOc1ccc(Cl)cc1
[1]
  T/C: 88 % of control
[2]
  T/C: 95 % of control
[3]
  T/C: 95 % of control

## Cc1ccc(C(=O)N(N)C2CCCCC2)cc1
dose: 100.0 mg/kg/injection, schedule: Q04DX003 (ip), vehicle: saline with Tween-80
  T/C: 95 % of control
dose: 200.0 mg/kg/injection, schedule: Q04DX003 (ip), vehicle: saline with Tween-80
  T/C: 93 % of control
dose: 400.0 mg/kg/injection, schedule: Q04DX003 (ip), vehicle: saline with Tween-80
  T/C: 96 % of control

## Cc1ccc(S(=O)(=O)N/N=C\c2cccc([N+](=O)[O-])c2)cc1
[11]
  T/C: 103 % of control
[12]
  T/C: 98 % of control
[13]
  T/C: 93 % of control

## CC1(C)C2CCC1C(O)C2 (stereo not drawn)
dose: 75.0 mg/kg/injection, schedule: Q01DX009 (ip), vehicle: saline
  T/C: 104 % of control
dose: 150.0 mg/kg/injection, schedule: Q01DX009 (ip), vehicle: saline
  T/C: 103 % of control
dose: 300.0 mg/kg/injection, schedule: Q01DX009 (ip), vehicle: saline
  T/C: 94 % of control

## O=C(O)COc1ccc(F)c(Cl)c1
dose: 100.0 mg/kg/injection, schedule: Q04DX002 (ip), vehicle: saline
  T/C: 105 % of control
dose: 200.0 mg/kg/injection, schedule: Q04DX002 (ip), vehicle: saline
  T/C: 117 % of control
dose: 400.0 mg/kg/injection, schedule: Q04DX002 (ip), vehicle: saline
  T/C: 110 % of control

## CCCNC(=O)NC1CCCCC1
dose: 264.0 mg/kg/injection, schedule: Q01DX001 (ip), vehicle: carboxymethylcellulose (CMC)
  T/C: 101 % of control
[8]
  T/C: 90 % of control
dose: 600.0 mg/kg/injection, schedule: Q01DX001 (ip), vehicle: carboxymethylcellulose (CMC)
  T/C: 98 % of control

## CCOc1ccn(C2OC(CI)C(OC3OC(COC(C)=O)C(OC(C)=O)C(OC(C)=O)C3OC(C)=O)C(OC(C)=O)C2OC(C)=O)c(=O)n1 (stereo not drawn)
dose: 22.5 mg/kg/injection, schedule: Q01DX001 (ip), vehicle: carboxymethylcellulose (CMC)
  T/C: 100 % of control
dose: 45.0 mg/kg/injection, schedule: Q01DX001 (ip), vehicle: carboxymethylcellulose (CMC)
  T/C: 100 % of control
dose: 90.0 mg/kg/injection, schedule: Q01DX001 (ip), vehicle: carboxymethylcellulose (CMC)
  T/C: 97 % of control
dose: 180.0 mg/kg/injection, schedule: Q01DX001 (ip), vehicle: carboxymethylcellulose (CMC)
  T/C: 103 % of control

## COC(=O)C(N)Cc1ccc(OC)c(N(CCCl)CCCl)c1 (stereo not drawn)
dose: 0.01 mg/kg/injection, schedule: Q01DX009 (ip), vehicle: saline
  T/C: 106 % of control
dose: 0.02 mg/kg/injection, schedule: Q01DX009 (ip), vehicle: saline
  T/C: 116 % of control
dose: 0.05 mg/kg/injection, schedule: Q01DX009 (ip), vehicle: saline
  T/C: 110 % of control
dose: 0.1 mg/kg/injection, schedule: Q01DX009 (ip), vehicle: saline
  T/C: 121 % of control
dose: 0.3 mg/kg/injection, schedule: Q01DX009 (ip), vehicle: saline
  T/C: 155 % of control
dose: 0.62 mg/kg/injection, schedule: Q01DX001 (ip), vehicle: saline
  T/C: 106 % of control
dose: 1.25 mg/kg/injection, schedule: Q01DX001 (ip), vehicle: saline
  T/C: 98 % of control
dose: 1.5 mg/kg/injection, schedule: Q01DX001 (ip), vehicle: carboxymethylcellulose (CMC)
  T/C: 115 % of control
dose: 1.5 mg/kg/injection, schedule: Q01DX009 (ip), vehicle: saline
  T/C: 151 % of control
dose: 2.5 mg/kg/injection, schedule: Q01DX001 (ip), vehicle: saline
  T/C: 106 % of control and 122 % of control
dose: 2.9 mg/kg/injection, schedule: Q01DX001 (ip), vehicle: saline
  T/C: 105 % of control
dose: 2.9 mg/kg/injection, schedule: Q01DX009 (ip), vehicle: saline
  T/C: 230 % of control
dose: 3.0 mg/kg/injection, schedule: Q01DX001 (ip), vehicle: carboxymethylcellulose (CMC)
  T/C: 120 % of control
dose: 3.0 mg/kg/injection, schedule: Q01DX009 (ip), vehicle: saline
  T/C: 123 % of control
dose: 4.4 mg/kg/injection, schedule: Q01DX001 (ip), vehicle: saline
  T/C: 104 % of control
dose: 4.4 mg/kg/injection, schedule: Q01DX009 (ip), vehicle: saline
  T/C: 108 % of control
dose: 5.0 mg/kg/injection, schedule: Q01DX001 (ip), vehicle: saline
  T/C: 111 % of control and 124 % of control
dose: 6.0 mg/kg/injection, schedule: Q01DX001 (ip), vehicle: carboxymethylcellulose (CMC)
  T/C: 108 % of control
dose: 6.6 mg/kg/injection, schedule: Q01DX001 (ip), vehicle: saline
  T/C: 109 % of control
dose: 10.0 mg/kg/injection, schedule: Q01DX001 (ip), vehicle: saline
  T/C: 107 % of control
